Data: patent publication US12679807B2 (MERCK SHARP & DOHME LLC, priority 2020, dated 2026)

These compounds were tested against T1, GCS enzyme contained within Golgi preparations isolated from human A375 malignant melanoma skin cells (Homo sapiens, UniProt Q16739) (assay: UDP-Glo glucosylceramide synthase biochemical assay). Conditions: crude Golgi preparation from A375 cells; C6 ceramide and UDP-glucose substrates; 20 h incubation at room temperature; UDP detected by luminescence.
T1 construct: endogenous levels of GCS enzyme contained within Golgi preparations isolated from human A375 malignant melanoma skin cells; endogenous in cells; host or cells: A375 human malignant melanoma cells (crude Golgi preparation)
T1 sequence (Q16739 1-394): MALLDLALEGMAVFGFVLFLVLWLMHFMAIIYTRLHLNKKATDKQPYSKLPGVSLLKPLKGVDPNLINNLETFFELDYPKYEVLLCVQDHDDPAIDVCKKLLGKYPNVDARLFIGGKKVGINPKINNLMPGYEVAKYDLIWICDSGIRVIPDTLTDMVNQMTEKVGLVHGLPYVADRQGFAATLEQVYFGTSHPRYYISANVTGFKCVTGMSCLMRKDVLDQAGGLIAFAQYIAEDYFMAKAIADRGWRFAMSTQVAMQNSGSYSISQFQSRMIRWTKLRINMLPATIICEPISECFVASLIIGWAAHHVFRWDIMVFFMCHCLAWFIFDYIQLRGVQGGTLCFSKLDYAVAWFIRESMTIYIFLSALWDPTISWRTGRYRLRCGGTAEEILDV
Source text: UDP-Glo™ Glucosylceramide Synthase Biochemical Assay
A UDP-Glo™ glucosylceramide synthase biochemical assay was utilized to evaluate the effect of test compounds on the activity of endogenous levels of GCS enzyme contained within Golgi preparations isolated from human A375 malignant melanoma skin cells. The UDP-Glo™ glucosylceramide synthase assay uses UDP-Glucose as a nucleotide-glycosyl donor and ceramide as substrate acceptor molecules. In the reaction, glucosylceramide synthase (GCS) transfers glucose from UDP-Glucose to ceramide. Glucosylceramide and UDP are released as products.
Using Promega's UDP-Glo™ Glycosyltransferase assay kit (Promega Corporation, Madison, WI, USA (Promega)), GCS activity was indirectly measured by detecting the amount of UDP produced. An aliquot of GCS enzyme (1.5 μg crude golgi preparation, total protein) and titrated test compound were aliquoted to each well and incubated for 30 minutes at room temperature. […] An equivalent volume of substrate mixture was then added to each well. Following a 20 h incubation at room temperature to allow for GCS turnover of substrate, an equal volume of UDP detection reagent (Promega) was added to each well and incubated for an additional 75 minutes at room temperature to simultaneously convert the accumulated UDP product into ATP and generate light in a luciferase reaction. The generated light was detected using a luminometer. […] luminescence values (RLUs) were normalized to mean “min” and “max” effects, as determined on each plate. […] Values for % Emax and EC50 were determined by best-fitting the normalized data to a curve in Activity Base along a four-parameter logistic nonlinear regression (4PL) model (based on the Levenberg-Marquardt algorithm and defined by the equation below):
[formula] where: n is 4 PMin (bottom of the curve); m is 4 PMax (top of the curve); i is IP (inflection point of curve); and p is slope. See Levenberg, K., “A Method for the Solution of Certain Problems in Least Squares”, Quart. Appl. Math. […] Math.

Row | EC50 | SMILES
1 | 120 nM | CC(C)(O)C(C1CC1)N1Cc2cccc(CCc3ccnc4c3CCC4)c2C1=O (single isomer, unassigned) [Compound 173, (R or S)-2-(1-Cyclopropyl-2-hydroxy-2-methylpropyl)-7-(2-(6,7-dihydro-5H-cyclopenta[b]pyridin-4-yl)ethyl)isoindolin-1-one]
2 | 6.8 nM | CC(C)(O)C(C1CC1)N1Cc2cccc(/C=C/c3c(Cl)cnc4c3OCO4)c2C1=O (single isomer, unassigned) [Compound 174, (R or S)-(E)-7-(2-(6-Chloro-[1,3]dioxolo[4,5-b]pyridin-7-yl)vinyl)-2-(1-cyclopropyl-2-hydroxy-2-methylpropyl)isoindolin-1-one]
3 | 27 nM | Cc1cnc2c(c1/C=C/c1cccc3c1C(=O)N(C(C1CC1)C(C)(C)O)C3)OCO2 (single isomer, unassigned) [Compound 175, (R or S)-(E)-2-(1-Cyclopropyl-2-hydroxy-2-methylpropyl)-7-(2-(6-methyl-[1,3]dioxolo[4,5-b]pyridin-7-yl)vinyl)isoindolin-1-one]
4 | 14 nM | Cc1cnc2c(c1CCc1cccc3c1C(=O)N(C(C1CC1)C(C)(C)O)C3)OCO2 (single isomer, unassigned) [Compound 176, (R or S)-2-(1-Cyclopropyl-2-hydroxy-2-methylpropyl)-7-(2-(6-methyl-[1,3]dioxolo[4,5-b]pyridin-7-yl)ethyl)isoindolin-1-one]
5 | 28 nM | CC(C)(O)C(C1CC1)N1Cc2cccc(COc3c(Cl)cnc4c3OCO4)c2C1=O (single isomer, unassigned) [Compound 177, (R or S)-7-(((6-chloro-[1,3]dioxolo[4,5-b]pyridin-7-yl)oxy)methyl)-2-(1-cyclopropyl-2-hydroxy-2-methylpropyl)isoindolin-1-one]
6 | 21 nM | Cc1cnc2c(c1NCc1cccc3c1C(=O)N(C(C1CC1)C(C)(C)O)C3)OCO2 (single isomer, unassigned) [Compound 178, (R or S)-2-(1-Cyclopropyl-2-hydroxy-2-methylpropyl)-7-(((6-methyl-[1,3]dioxolo[4,5-b]pyridin-7-yl)amino)methyl)isoindolin-1-one]
7 | 16 nM | CC(C)(O)C(C1CC1)N1Cc2cccc(OCc3c(Cl)cnc4c3OCO4)c2C1=O (single isomer, unassigned) [Compound 179, (R or S)-7-((6-chloro-[1,3]dioxolo[4,5-b]pyridin-7-yl)methoxy)-2-(1-cyclopropyl-2-hydroxy-2-methylpropyl)isoindolin-1-one]
8 | 35 nM | CC(C)(O)C(C1CC1)N1Cc2cccc(OCc3ccnc4c3CCC4)c2C1=O (single isomer, unassigned) [Compound 180, (R or S)-2-(1-cyclopropyl-2-hydroxy-2-methylpropyl)-7-((6,7-dihydro-5H-cyclopenta[b]pyridin-4-yl)methoxy)isoindolin-1-one]
9 | 54 nM | Cc1cnc2c(c1COc1cccc3c1C(=O)N(C(C1CC1)C(C)(C)O)C3)OCO2 (single isomer, unassigned) [Compound 181]

The remaining lines, values behind:

Row | SMILES | EC50
10 | CC(C)(O)C(C1CC1)N1Cc2cccc(NC(=O)c3c(Cl)cnc4c3CCO4)c2C1=O (single isomer, unassigned) [Compound 155, (R or S)-5-Chloro-N-(2-(1-cyclopropyl-2-hydroxy-2-methylpropyl)-3-oxoisoindolin-4-yl)-2,3-dihydrofuro[2,3-b]pyridine-4-carboxamide] | 0.19 nM
11 | CC(C)(O)C(C1CC1)N1Cc2cccc(NC(=O)c3c(Cl)cnc4c3OCO4)c2C1=O (single isomer, unassigned) [Compound 157, (R or S)-6-chloro-N-(2-(1-cyclopropyl-2-hydroxy-2-methylpropyl)-3-oxoisoindolin-4-yl)-[1,3]dioxolo[4,5-b]pyridine-7-carboxamide] | 0.49 nM
12 | CC(C)(O)C(C1CC1)N1Cc2cccc(NC(=O)c3ccnc4c3CCC4)c2C1=O (single isomer, unassigned) [Compound 158, (R or S)-N-(2-(1-cyclopropyl-2-hydroxy-2-methylpropyl)-3-oxoisoindolin-4-yl)-6,7-dihydro-5H-cyclopenta[b]pyridine-4-carboxamide] | 1 nM
13 | Cn1cc2c(C(=O)Nc3cccc4c3C(=O)N(C(C3CC3)C(C)(C)O)C4)cccc2n1 (single isomer, unassigned) [Compound 160, (R or S)-N-(2-(1-cyclopropyl-2-hydroxy-2-methylpropyl)-3-oxoisoindolin-4-yl)-2-methyl-2H-indazole-4-carboxamide] | 5.9 nM
14 | CC(C)(O)C(C1CC1)N1Cc2cccc(NC(=O)c3ccnc4c3CCO4)c2C1=O (single isomer, unassigned) [Compound 162, (R or S)-N-(2-(1-cyclopropyl-2-hydroxy-2-methylpropyl)-3-oxoisoindolin-4-yl)-2,3-dihydrofuro[2,3-b]pyridine-4-carboxamide] | 23 nM
15 | CC(C)(O)C(C1CC1)N1Cc2cccc(NC(=O)c3ccnc4c3OCCO4)c2C1=O (single isomer, unassigned) [Compound 163, (R or S)-N-(2-(1-cyclopropyl-2-hydroxy-2-methylpropyl)-3-oxoisoindolin-4-yl)-2,3-dihydro-[1,4]dioxino[2,3-b]pyridine-8-carboxamide] | 61 nM
16 | COc1nccc(C(=O)Nc2cccc3c2C(=O)N(C(C2CC2)C(C)(C)O)C3)c1OC (single isomer, unassigned) [Compound 164, (R or S)-N-(2-(1-cyclopropyl-2-hydroxy-2-methylpropyl)-3-oxoisoindolin-4-yl)-2,3-dimethoxyisonicotinamide] | 77 nM
17 | COC(C)(C)C(C1CC1)N1Cc2cccc(NC(=O)c3ccnc4c3CCC4)c2C1=O (single isomer, unassigned) [Compound 165, (R or S)-N-(2-(1-cyclopropyl-2-methoxy-2-methylpropyl)-3-oxoisoindolin-4-yl)-6,7-dihydro-5H-cyclopenta[b]pyridine-4-carboxamide] | 200 nM
18 | Cc1cnc2c(c1C(=O)Nc1cccc3c1C(=O)N(C(C1CC1)C(C)(C)O)C3)CCO2 (single isomer, unassigned) [Compound 168, (R or S)—N-(2-(1-Cyclopropyl-2-hydroxy-2-methylpropyl)-3-oxoisoindolin-4-yl)-5-methyl-2,3-dihydrofuro[2,3-b]pyridine-4-carboxamide] | 0.3 nM
19 | Cc1cnc2c(c1C(=O)Nc1cccc3c1C(=O)N(C(C1CC1)C(C)(C)O)C3)OCO2 (single isomer, unassigned) [Compound 169, (R or S)—N-(2-(1-Cyclopropyl-2-hydroxy-2-methylpropyl)-3-oxoisoindolin-4-yl)-6-methyl-[1,3]dioxolo[4,5-b]pyridine-7-carboxamide] | 0.4 nM
20 | CC(C)(O)C(C1CC1)N1Cc2cccc(/C=C/c3ccnc4c3CCC4)c2C1=O (single isomer, unassigned) [Compound 171, (R or S)-(E)-2-(1-Cyclopropyl-2-hydroxy-2-methylpropyl)-7-(2-(6,7-dihydro-5H-cyclopenta[b]pyridin-4-yl)vinyl)isoindolin-1-one] | 230 nM
21 | CC(C)(O)C(C1CC1)N1Cc2cccc(C#Cc3ccnc4c3CCC4)c2C1=O (single isomer, unassigned) [Compound 172, (R or S)-2-(1-Cyclopropyl-2-hydroxy-2-methylpropyl)-7-((6,7-dihydro-5H-cyclopenta[b]pyridin-4-yl)ethynyl)isoindolin-1-one] | 9.7 nM
22 | Cc1nnc(-c2cccc(-c3cccc4c3C(=O)N([C@H](C3CC3)C(C)(C)O)C4)c2)o1 [Compound 13, (R)-2-(1-cyclopropyl-2-hydroxy-2-methylpropyl)-7-(3-(5-methyl-1,3,4-oxadiazol-2-yl)phenyl)isoindolin-1-one] | 260 nM
